The results in this text go back to patent US10975123B2, “Mutant Akt-specific capture agents, compositions, and methods of using and making” (California Institute of Technology, priority 2014, dated 2021).

One experiment addresses full length Akt1E17K (Homo sapiens, UniProt P31749, E17K). As to the kind of experiment: Fluorescence polarization binding to full-length E17K Akt1. Particulars: yleaf peptide 4, fluorescence polarization in solution, triplicate. The protocol: FIG. 2: Anchor ligand structure and characterization. (FIG. 2A) The peptide anchor ligand, yleaf (SEQ ID NO: 43), which was discovered using the epitope-targeting technique. The different sets of R groups indicate the modifications that were made to perform the various experiments described. (FIG. 2B) Point ELISA for specificity obtained by immobilizing biotinylated yleaf (SEQ ID NO: 43) anchor ligand 2 onto a Neutravidin plate, then incubating with a 6 His-tagged epitope (“6 His” disclosed as SEQ ID NO: 4) 3. […] (FIG. 2C) Binding curves of yleaf (SEQ ID NO: 43) anchor ligand 4 to the full-length WT or E17K mutant Akt1 proteins obtained in solution by fluorescence polarization. A saturation point for the WT ligand was not reached due to the prohibitively high protein concentration required. (FIG. 2D) Full binding curves of yleaf (SEQ ID NO: 43) anchor ligand 4 to the WT or E17K mutant epitopes. […] All assays were performed in triplicate and averaged. Error bars indicate standard deviation.
FIG. 5: The PCC agent triligand development strategy, structure, and inhibition data. (FIG. 5A) The yleaf (SEQ ID NO: 43) anchor ligand with a C-terminal alkyne 2 was screened against an azide-terminated library in the presence of the full-length PH Domain to identify a biligand. The biligand 7 was then appended with an N-terminal azide and screened against an alkyne library to identify a triligand. […]
Background: In fluorescence polarisation assays a small probe gives low polarisation when free and higher when bound to something large.

Experiment [1] deals with T1, E17K PH Domain binding to PIP3 (Homo sapiens, UniProt P31749, E17K).
T1 construct: 2 μg of either wildtype or mutant PH Domain-GFP protein (234 nM); made in house; host or cells: HEK-293-6E (used as cell lysate, not purified)
T1 sequence (P31749 5-108 E17K limits assumed): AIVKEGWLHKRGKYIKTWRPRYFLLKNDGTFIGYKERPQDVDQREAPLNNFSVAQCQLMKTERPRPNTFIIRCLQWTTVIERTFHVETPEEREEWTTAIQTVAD
Kind of experiment: PIP3 agarose inhibition assay, E17K. In kind it is biochemical. The following applies: ligand 2.38 μM (10x protein), protein 234 nM, western blot, in words. An excerpt:
The yleaf ligand, the biligand, and the triligand were all tested for their ability to block the E17K PHD binding with PIP3. For this test, PIP3-coated resin (Echelon Biosciences) was used to mimic the PHD interaction with the cell membrane, and could be used to bind the protein as in an immunoprecipitation assay^22. The presence of an effective blocking compound would reduce the ability of the resin to capture the protein, and would thus appear as a diminished signal in the corresponding western blot assay. A control lane containing no capture agent was used to show baseline binding of the protein to the PIP3 resin. […] In an expanded study, we compared the amount of E17K and WT PH domain binding relative to the amount of added triligand (FIG. 5e).
PIP3 Agarose beads (Echelon) were used to detect for the inhibition of PH Domain binding to its substrate, PIP3, upon incubation with the anchor candidate peptide ligands. To test the inhibition of each of the ligands, anchor biligand and triligand, 20 μL of resin slurry was added to each of four tubes and washed three times with 1×TBS. Protein, 2 μg (234 nM) of E17K mutant, was preincubated for one hour at room temperature with either DMSO (no protein blank), anchor, biligand or triligand at 2.38 μM (10× in relation to protein) in 200 μL of 1×TBS. For the control, mutant PH Domain was incubated with 1×TBS and 1 μL […] to mimic the ligand conditions. These protein samples were then added to PIP3 agarose in a Spin-X tube and incubated at room temperature for two hours. The resin was washed three times with 1×TBS with 0.25% IGEPAL CA-630, spun out to dry completely, then denatured with 50 μL 3×SDS gel loading buffer for 10 min at 95° C. The gel loading buffer was spun out of the resin and detected via western blot as per the Streptavidin-Agarose Pulldowns. Inhibition was indicated by a decrease in the amount of PH Domain that was pulled down by the resin.
Expanded inhibition blots with either WT of E17K mutant protein were performed in a similar fashion. Twelve tubes of 20 μL of PIP3 agarose were washed three times with 1×TBS. 2 μg of either wildtype or mutant PH Domain-GFP protein (234 nM) in 200 uL 1×TBS were preincubated for 30 minutes with differing concentrations of triligand: 0.1 eq (23.4 nM), 1 eq (234 nM), 10 eq (2.34 μM), 100 eq (23.4 μM), and 1000 eq (234 μM). The protein and triligand solutions were then incubated with the PIP3 resin for 2 hours at room temperature. The resins were washed, eluted, and blotted as per all PH Domain western blots.

“Also recorded” adds a separate entry of the source. Where a SMILES comes first, the peptide text is derived from it. [ ]: non-standard residue; d: D form.

Sequence of full length Akt1E17K (P31749 whole entry E17K): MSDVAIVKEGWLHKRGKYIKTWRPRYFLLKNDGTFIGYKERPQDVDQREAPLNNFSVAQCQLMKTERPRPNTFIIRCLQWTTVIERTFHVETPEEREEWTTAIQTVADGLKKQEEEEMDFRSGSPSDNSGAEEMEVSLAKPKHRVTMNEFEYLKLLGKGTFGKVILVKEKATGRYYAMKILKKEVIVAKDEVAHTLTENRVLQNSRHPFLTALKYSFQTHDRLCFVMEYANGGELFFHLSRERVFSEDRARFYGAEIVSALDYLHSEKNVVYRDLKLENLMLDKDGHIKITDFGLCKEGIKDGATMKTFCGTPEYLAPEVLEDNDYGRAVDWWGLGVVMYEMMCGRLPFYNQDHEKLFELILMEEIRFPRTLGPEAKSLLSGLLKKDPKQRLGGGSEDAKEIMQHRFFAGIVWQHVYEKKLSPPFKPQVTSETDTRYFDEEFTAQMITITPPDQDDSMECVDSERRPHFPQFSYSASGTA

For the compound `CC(C)C[C@@H](NC(=O)[C@H](N)Cc1ccc(O)cc1)C(=O)N[C@H](CCC(=O)O)C(=O)N[C@H](C)C(=O)N[C@H](Cc1ccccc1)C(N)=O` [yleaf] (H-[dY][dL][dE][dA][dF]-NH2; N-terminus assumed), binding at full length Akt1E17K was put at a Kd of 54 ± 7 nM. Moreover, in experiment [1], the “inhibition of E17K PH Domain binding to PIP3-coated resin” value is “did not exhibit evidence of inhibition; also recorded: no change in E17K binding ability”.

One may read the Kd as the free concentration of one partner at which half of the binding sites on the other are occupied at equilibrium, for simple one-to-one binding.
